Laboratory results published in ChEMBL document CHEMBL4396891, “Recent update on anti-dengue drug discovery” (Eur J Med Chem, 2019).
In brackets after ≈: the same amount, converted by molar mass.

How the values were obtained:
dengue virus type 1 [1] = assay: Antiviral activity against DENV1 infected in African green monkey Vero cells assessed as reduction in viral replication at 10 uM after 4 days by qRT-PCR analysis relative to control; type: functional; conditions: 96 h
dengue virus type 2 [2] = assay: Antiviral activity against DENV2 infected in African green monkey Vero cells assessed as reduction in viral replication at 10 uM after 4 days by qRT-PCR analysis relative to control; type: functional; conditions: 96 h
dengue virus type 3 [3] = assay: Antiviral activity against DENV3 infected in African green monkey Vero cells assessed as reduction in viral replication at 10 uM after 4 days by qRT-PCR analysis relative to control; type: functional; conditions: 96 h
dengue virus type 4 [4] = assay: Antiviral activity against DENV4 infected in African green monkey Vero cells assessed as reduction in viral replication at 10 uM after 4 days by qRT-PCR analysis relative to control; type: functional; conditions: 96 h
dengue virus type 2 [5] = assay: Antiviral activity against DENV2 infected in BHK-21 cells after 72 hrs by plaque-forming assay; type: functional, organism-based; conditions: BHK-21, 72 h
dengue virus type 2 [6] = assay: Antiviral activity against DENV2 infected in BHK cells assessed as reduction in viral Yield at 20 uM after 48 hrs by fluorescence focus formation assay relative to control; type: functional; set-up: scale not given: the % may be the effect or the level left
dengue virus type 2 [7] = assay: Antiviral activity against DENV2 infected in human Huh7 cells assessed as reduction in viral Yield at 20 uM after 48 hrs by fluorescence focus formation assay relative to control; type: functional; set-up: scale not given: the % may be the effect or the level left
dengue virus type 2 [8] = assay: Antiviral activity against DENV2 New Guinea C infected in human Huh7 cells assessed as reduction in viral titer after 3 to 4 days by MTT assay; type: functional, organism-based; conditions: Huh-7
dengue virus type 2 [9] = assay: Antiviral activity against DENV2 assessed as reduction in plaque formation; type: functional, organism-based
dengue virus type 2 [10] = assay: Virucidal activity against DENV2 infected in human HepG2 cells; type: functional, organism-based
dengue virus type 2 [11] = assay: Virucidal activity against DENV2 infected in human HeLa cells; type: functional, organism-based
dengue virus type 2 [12] = assay: Antiviral activity against DENV2 infected in African green monkey Vero cells by focus formation unit reduction assay; type: functional, organism-based
dengue virus type 2 [13] = assay: Virucidal activity against DENV2; type: functional, organism-based
dengue virus type 2 [14] = assay: Antiviral activity against DENV2 infected in human Huh7 cells by qRT-PCR analysis; type: functional, organism-based; conditions: Huh-7
Dengue virus = assay: Antiviral activity against dengue virus infected in HeLa cells assessed as reduction in viral propagation after 72 hrs by RT-qPCR analysis; type: functional, organism-based
dengue virus type 2 [15] = assay: Antiviral activity against DENV2 ICC265 infected in human Huh7 cells assessed as reduction in viral titer by plaque assay; type: functional, organism-based; conditions: ICC265, Huh-7
dengue virus type 1 [16] = assay: Antiviral activity against DENV1 infected in human HepG2 cells assessed as reduction in viral infection at 20 uM after 24 to 72 hrs by FFU assay relative to control; type: functional; set-up: scale not given: the % may be the effect or the level left
dengue virus type 2 [17] = assay: Antiviral activity against DENV2 infected in human HepG2 cells assessed as reduction in viral infection at 20 uM after 24 to 72 hrs by FFU assay relative to control; type: functional; set-up: scale not given: the % may be the effect or the level left
dengue virus type 3 [18] = assay: Antiviral activity against DENV3 infected in human HepG2 cells assessed as reduction in viral infection at 20 uM after 24 to 72 hrs by FFU assay relative to control; type: functional; set-up: scale not given: the % may be the effect or the level left
dengue virus type 4 [19] = assay: Antiviral activity against DENV4 infected in human HepG2 cells assessed as reduction in viral infection at 20 uM after 24 to 72 hrs by FFU assay relative to control; type: functional; set-up: scale not given: the % may be the effect or the level left
dengue virus type 2 [20] = assay: Antiviral activity against DENV2 infected in […] BHK-15 cells after 48 hrs by luciferase reporter gene assay; type: functional, organism-based; conditions: BHK15, 48 h
dengue virus type 2 [21] = assay: Antiviral activity against DENV2 infected in BHK cells assessed as reduction in viral yield after 24 ro 48 hrs by luciferase reporter gene assay; type: functional, organism-based
dengue virus type 1 [22] = assay: Antiviral activity against DENV1 FGA/89 infected in human Huh7.5 cells after 72 hrs; type: functional, organism-based; conditions: FGA/89, Huh7.5, 72 h
dengue virus type 2 [23] = assay: Antiviral activity against DENV2 ICC-265 infected in human Huh7.5 cells after 72 hrs; type: functional, organism-based; conditions: ICC-265, Huh7.5, 72 h
dengue virus type 3 [24] = assay: Antiviral activity against DENV3 97 infected in human Huh7.5 cells after 72 hrs; type: functional, organism-based; conditions: Dengue virus, 97, Huh7.5, 72 h
dengue virus type 4 [25] = assay: Antiviral activity against DENV4 TVP360 infected in human Huh7.5 cells after 72 hrs; type: functional, organism-based; conditions: TVP360, Huh7.5, 72 h
dengue virus type 2 [26] = assay: Antiviral activity against DENV2 infected in HEK293 cells assessed as reduction in plaque formation; type: functional, organism-based
dengue virus type 1 [27] = assay: Antiviral activity against DENV1 after 48 hrs by qRT-PCR analysis; type: functional, organism-based
dengue virus type 2 [28] = assay: Antiviral activity against DENV2 after 48 hrs by qRT-PCR analysis; type: functional, organism-based
dengue virus type 3 [29] = assay: Antiviral activity against DENV3 after 48 hrs by qRT-PCR analysis; type: functional, organism-based
dengue virus type 4 [30] = assay: Antiviral activity against DENV4 after 48 hrs by qRT-PCR analysis; type: functional, organism-based
dengue virus type 2 [31] = assay: Antiviral activity against DENV2 New Guinea C infected in HEK293 cells assessed as reduction in viral infection after 48 hrs by focus forming assay; type: functional, organism-based; conditions: HEK293, 48 h

N#C/C(=C\c1ccc(-c2ccc(C(=O)O)cc2)s1)c1nc2cc(Cl)ccc2[nH]1
inhibition at 10 µM (dengue virus type 1 [1]): 50 to 82%
inhibition at 10 µM (dengue virus type 2 [2]): 50 to 82%
inhibition at 10 µM (dengue virus type 3 [3]): 50 to 82%
inhibition at 10 µM (dengue virus type 4 [4]): 50 to 82%

CCCCCCCCCCCCCCCC[N+](CC)(CO)CO
EC50 (dengue virus type 2 [5]): 1.03 µM

C=CCc1ccc(O)c(-c2ccc(O)c(CC=C)c2)c1 [HONOKIOL]
Activity (dengue virus type 2 [6]): >90%
Activity (dengue virus type 2 [7]): >90%

COc1cc(/C(C#N)=C/c2cc3ccccc3s2)cc(OC)c1OC
EC50 (dengue virus type 2 [8]): 7.22 µM

COc1cc(/C=C/C(=O)CC(=O)/C=C/c2ccc(O)c(OC)c2)ccc1O [CURCUMIN]
IC50 (dengue virus type 2 [9]): 11.5 µM

C=C1CC[C@@H]2[C@](C)(CO)[C@H](O)CC[C@@]2(C)[C@@H]1C/C=C1/C(=O)OC[C@H]1O [ANDROGRAPHOLIDE]
EC50 (dengue virus type 2 [10]): 21.3 µM
EC50 (dengue virus type 2 [11]): 22.7 µM

O=C(O)[C@H]1O[C@@H](Oc2cc3oc(-c4ccccc4)cc(=O)c3c(O)c2O)[C@H](O)[C@@H](O)[C@@H]1O [BAICALIN]
IC50 (dengue virus type 2 [12]): 13.5 µg/mL (≈ 30.2 µM)
IC50 (dengue virus type 2 [13]): 8.74 µg/mL (≈ 19.6 µM)

CNCCC(Oc1ccc(C(F)(F)F)cc1)c1ccccc1 (centres undefined) [FLUOXETINE]
IC50 (dengue virus type 2 [14]): 0.38 µM

CCN(CC)Cc1ccc(C(=O)N(CCc2ccccc2OC)[C@@H]2CCNC2)cc1
IC50 (Dengue virus): 36.5 µM
IC90 (Dengue virus): 35.5 µM

COc1cc2c(c(OC)c1OC)-c1c(cc(OC)c(OC)c1OC)C[C@H](C)[C@H](C)C2 [SCHISANDRIN A]
EC50 (dengue virus type 2 [15]): 28.1 µM

COc1c(O)cc2oc3cc(O)c(CC=C(C)C)c(O)c3c(=O)c2c1CC=C(C)C [MANGOSTIN]
Activity (dengue virus type 1 [16]): 47 - 55%
Activity (dengue virus type 2 [17]): 47 - 55%
Activity (dengue virus type 3 [18]): 47 - 55%
Activity (dengue virus type 4 [19]): 47 - 55%
EC50 (dengue virus type 2 [20]): 10 µM

O[C@@H](c1cc(C(F)(F)F)nc2c(C(F)(F)F)cccc12)[C@H]1CCCCN1 [(S,R)-MEFLOQUINE]
EC50 (dengue virus type 2 [21]): 3.22 µM

CCCCCCCCCCCCNCCNC(=O)C[C@@]1(O)C[C@@H](O)[C@@H]2OC(C)(C)O[C@@H]2C1
IC50 (dengue virus type 1 [22]): 6.9 to 10.4 µM
IC50 (dengue virus type 2 [23]): 6.9 to 10.4 µM
IC50 (dengue virus type 3 [24]): 6.9 to 10.4 µM
IC50 (dengue virus type 4 [25]): 6.9 to 10.4 µM

Cc1cnc(NC(=O)c2cc(S(=O)(=O)N(C)C)ccc2N2CCCC2)s1
EC50 (dengue virus type 2 [26]): 0.85 µM

NCC(=O)Nc1ccc(-n2nc(C(F)(F)F)cc2-c2ccc3c(ccc4ccccc43)c2)cc1 [AR-12]
EC50 (dengue virus type 1 [27]): 0.6 to 0.8 µM
EC50 (dengue virus type 2 [28]): 0.6 to 0.8 µM
EC50 (dengue virus type 3 [29]): 0.6 to 0.8 µM
EC50 (dengue virus type 4 [30]): 0.6 to 0.8 µM

OCc1cc(C(O)CNCCCCCCOCCCCc2ccccc2)ccc1O (centres undefined) [SALMETEROL]
IC50 (dengue virus type 2 [14]): 0.67 µM

Nc1c(C(=O)Nc2nc(-c3ccccc3)cs2)sc2nc3c(cc12)CN(c1ccccc1)CC3
IC50 (dengue virus type 2 [31]): 0.025 µM
